The values that follow come from patent US20050222200A1, “AMIDE DERIVATIVES AS ION CHANNEL LIGANDS AND PHARMACEUTICAL COMPOSITIONS AND METHODS OF USING THE SAME” (Renovis, Inc., priority 2003, published 2005).

The target in the assay is T1, VR1 (Homo sapiens, UniProt Q8NER1).
T1 construct: expressed in transfected cells; host or cells: 293 cells ("293 neurons" [sic])
T1 sequence (Q8NER1 whole entry, species assumed): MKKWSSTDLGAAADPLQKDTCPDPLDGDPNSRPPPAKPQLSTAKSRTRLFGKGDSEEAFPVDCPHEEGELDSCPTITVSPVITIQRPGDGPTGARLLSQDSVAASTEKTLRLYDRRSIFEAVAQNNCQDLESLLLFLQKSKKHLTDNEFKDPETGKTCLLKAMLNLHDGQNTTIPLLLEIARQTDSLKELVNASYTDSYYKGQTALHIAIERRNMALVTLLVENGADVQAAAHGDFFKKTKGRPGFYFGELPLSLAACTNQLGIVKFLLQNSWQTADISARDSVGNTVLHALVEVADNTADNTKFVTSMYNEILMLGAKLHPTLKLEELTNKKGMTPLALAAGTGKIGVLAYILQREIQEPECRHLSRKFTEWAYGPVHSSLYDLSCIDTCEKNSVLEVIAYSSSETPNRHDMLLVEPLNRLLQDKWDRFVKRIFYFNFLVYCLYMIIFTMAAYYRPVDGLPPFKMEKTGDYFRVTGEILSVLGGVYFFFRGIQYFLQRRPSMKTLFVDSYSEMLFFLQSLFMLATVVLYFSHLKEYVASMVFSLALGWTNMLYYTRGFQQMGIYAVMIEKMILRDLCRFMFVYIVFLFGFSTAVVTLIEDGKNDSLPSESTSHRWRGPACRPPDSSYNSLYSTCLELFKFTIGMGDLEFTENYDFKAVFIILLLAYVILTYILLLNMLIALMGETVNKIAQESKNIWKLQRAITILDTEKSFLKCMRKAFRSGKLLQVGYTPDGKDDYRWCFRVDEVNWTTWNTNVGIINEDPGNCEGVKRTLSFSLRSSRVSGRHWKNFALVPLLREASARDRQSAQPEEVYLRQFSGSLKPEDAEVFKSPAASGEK
Nature of the assay: High throughput calcium imaging assay of VR1 antagonists (Fura2, Flex Station, 96 well). Further: test concentration or dose not given here. The following applies: Table 1 activity class. Type of assay: cell-based.
As for `CC(C)/C=C/c1ccc(C(=O)NCc2ccco2)cc1` [Compound 88], the “inhibition of calcium ion influx induced by capsaicin stimulation” value (“inhibition of calcium ion influx induced” below) is on record as “++ (compound exhibited 25-50% inhibition of calcium ion influx induced by capsaicin stimulation)”.
The result for `CC(C)(C)/C=C/c1ccc(C(=O)Nc2ccccc2Cl)cc1` [Compound 33] reads “+ (compound exhibited 0-25% inhibition of calcium ion influx induced by capsaicin stimulation)”; that for `CCC/C=C/c1ccc(C(=O)NCCCn2ccnc2)cc1` [Compound 190], “+ (compound exhibited 0-25% inhibition of calcium ion influx induced by capsaicin stimulation)”; that for `CC(C)(C)/C=C/c1ccc(C(=O)Nc2ccc(Br)cn2)cc1` [Compound 69], “+ (compound exhibited 0-25% inhibition of calcium ion influx induced by capsaicin stimulation)”.
The result for `CCC/C=C/c1ccc(C(=O)NC(c2ccccc2)c2ccccc2)cc1` [Compound 191] reads “+ (compound exhibited 0-25% inhibition of calcium ion influx induced by capsaicin stimulation)”; that for `CC(C)/C=C/c1ccc(C(=O)Nc2ccc(C(C)C)cc2)cc1` [Compound 153], “++++ (compound exhibited 75% or greater inhibition of calcium ion influx induced by capsaicin stimulation)”.
For `CC(C)/C=C/c1ccc(C(=O)Nc2ccc3[nH]ccc3c2)cc1` [Compound 158] the value was “++ (compound exhibited 25-50% inhibition of calcium ion influx induced by capsaicin stimulation)”.
Turning to `CCC/C=C/c1ccc(C(=O)NCCN2CCOCC2)cc1` [Compound 209], the “inhibition of calcium ion influx induced” value is listed as “+ (compound exhibited 0-25% inhibition of calcium ion influx induced by capsaicin stimulation)”.
Take `Cc1cccnc1NC(=O)c1ccc(/C=C/C(C)(C)C)cc1` [Compound 68]: the “inhibition of calcium ion influx induced” value is given as “+++ (compound exhibited 50-75% inhibition of calcium ion influx induced by capsaicin stimulation)”.
For `CCC/C=C/c1ccc(C(=O)NCc2ccco2)cc1` [Compound 183] the value was “+ (compound exhibited 0-25% inhibition of calcium ion influx induced by capsaicin stimulation)”.
For `CC(C)(C)/C=C/c1ccc(C(=O)NCCN2CCNCC2)cc1` [Compound 60] the value was “+ (compound exhibited 0-25% inhibition of calcium ion influx induced by capsaicin stimulation)”; for `CCC/C=C/c1ccc(C(=O)Nc2ccncc2)cc1` [Compound 202], “+ (compound exhibited 0-25% inhibition of calcium ion influx induced by capsaicin stimulation)”; for `CCC/C=C/c1ccc(C(=O)Nc2nccs2)cc1` [Compound 205], “+ (compound exhibited 0-25% inhibition of calcium ion influx induced by capsaicin stimulation)”.
The result for `CC(C)/C=C/c1ccc(C(=O)Nc2ccc(Cl)c(C(F)(F)F)c2)cc1` [Compound 148] reads “+ (compound exhibited 0-25% inhibition of calcium ion influx induced by capsaicin stimulation)”.
Turning to `CC(C)(C)/C=C/c1ccc(C(=O)Nc2cc[nH]n2)cc1` [Compound 54], the “inhibition of calcium ion influx induced” value is “+ (compound exhibited 0-25% inhibition of calcium ion influx induced by capsaicin stimulation)”.
The result for `CC(C)(C)/C=C/c1ccc(C(=O)Nc2ccncn2)cc1` [Compound 67] reads “+ (compound exhibited 0-25% inhibition of calcium ion influx induced by capsaicin stimulation)”; that for `CCC/C=C/c1ccc(C(=O)Nc2ccc(N(CC)CC)cc2)cc1` [Compound 227], “+ (compound exhibited 0-25% inhibition of calcium ion influx induced by capsaicin stimulation)”; that for `CC(C)(C)/C=C/c1ccc(C(=O)NCCc2ccccc2Cl)cc1` [Compound 11], “++++ (compound exhibited 75% or greater inhibition of calcium ion influx induced by capsaicin stimulation)”.
The result for `CCC/C=C/c1ccc(C(=O)NCCc2ccc(OC)c(OC)c2)cc1` [Compound 217] reads “+ (compound exhibited 0-25% inhibition of calcium ion influx induced by capsaicin stimulation)”; that for `CC(C)/C=C/c1ccc(C(=O)NCCN2CCOCC2)cc1` [Compound 112], “++ (compound exhibited 25-50% inhibition of calcium ion influx induced by capsaicin stimulation)”.
For `CC(C)/C=C/c1ccc(C(=O)NCc2ccc3c(c2)OCO3)cc1` [Compound 111] the value was “+++ (compound exhibited 50-75% inhibition of calcium ion influx induced by capsaicin stimulation)”; for `CCC/C=C/c1ccc(C(=O)NCc2cccc(C(F)(F)F)c2)cc1` [Compound 211], “+ (compound exhibited 0-25% inhibition of calcium ion influx induced by capsaicin stimulation)”.
As for `CN(C)c1ccc(CNC(=O)c2ccc(/C=C/C(C)(C)C)cc2)cc1` [Compound 81], the “inhibition of calcium ion influx induced” value was “+ (compound exhibited 0-25% inhibition of calcium ion influx induced by capsaicin stimulation)”.
For `COc1cc(NC(=O)c2ccc(/C=C/C(C)(C)C)cc2)cc(C(F)(F)F)c1` [Compound 44] the value was “++++ (compound exhibited 75% or greater inhibition of calcium ion influx induced by capsaicin stimulation)”; for `CCC/C=C/c1ccc(C(=O)Nc2cc[nH]n2)cc1` [Compound 204], “+ (compound exhibited 0-25% inhibition of calcium ion influx induced by capsaicin stimulation)”.
The result for `CCC/C=C/c1ccc(C(=O)Nc2cccc(Cl)c2)cc1` [Compound 228] reads “+++ (compound exhibited 50-75% inhibition of calcium ion influx induced by capsaicin stimulation)”; that for `CCC/C=C/c1ccc(C(=O)Nc2cccnc2)cc1` [Compound 203], “+ (compound exhibited 0-25% inhibition of calcium ion influx induced by capsaicin stimulation)”; that for `CC(C)/C=C/c1ccc(C(=O)Nc2ccccc2Cl)cc1` [Compound 136], “+ (compound exhibited 0-25% inhibition of calcium ion influx induced by capsaicin stimulation)”.
For `CC(C)/C=C/c1ccc(C(=O)Nc2ccc3ncccc3c2)cc1` [Compound 171] the value was “++ (compound exhibited 25-50% inhibition of calcium ion influx induced by capsaicin stimulation)”; for `CC(C)(C)/C=C/c1ccc(C(=O)Nc2ccc(Cl)nc2)cc1` [Compound 74], “+++ (compound exhibited 50-75% inhibition of calcium ion influx induced by capsaicin stimulation)”; for `COc1ccc(CCNC(=O)c2ccc(/C=C/C(C)C)cc2)cc1OC` [Compound 121], “+++ (compound exhibited 50-75% inhibition of calcium ion influx induced by capsaicin stimulation)”.
On to `COc1ccccc1CNC(=O)c1ccc(/C=C/C(C)C)cc1` [Compound 87], for which the “inhibition of calcium ion influx induced” value is reported as “+ (compound exhibited 0-25% inhibition of calcium ion influx induced by capsaicin stimulation)”.
The result for `CCC/C=C/c1ccc(C(=O)NC2CCCC2)cc1` [Compound 214] reads “+ (compound exhibited 0-25% inhibition of calcium ion influx induced by capsaicin stimulation)”.
For `CC(C)(C)/C=C/c1ccc(C(=O)Nc2cccc(C#N)c2)cc1` [Compound 38] the value was “+ (compound exhibited 0-25% inhibition of calcium ion influx induced by capsaicin stimulation)”.
For `CC(C)/C=C/c1ccc(C(=O)Nc2ccncc2)cc1` [Compound 105] the value was “++ (compound exhibited 25-50% inhibition of calcium ion influx induced by capsaicin stimulation)”; for `Cc1nccc(NC(=O)c2ccc(/C=C/C(C)(C)C)cc2)n1` [Compound 77], “+ (compound exhibited 0-25% inhibition of calcium ion influx induced by capsaicin stimulation)”.
For `CCC/C=C/c1ccc(C(=O)NCc2cccs2)cc1` [Compound 224], the “inhibition of calcium ion influx induced” value was “++ (compound exhibited 25-50% inhibition of calcium ion influx induced by capsaicin stimulation)”.
For `CCC/C=C/c1ccc(C(=O)NC(C)C)cc1` [Compound 179] the value was “+ (compound exhibited 0-25% inhibition of calcium ion influx induced by capsaicin stimulation)”; for `CC(C)(C)/C=C/c1ccc(C(=O)NC2CCC(C(C)(C)C)CC2)cc1` (stereo not shown) [Compound 12], “+ (compound exhibited 0-25% inhibition of calcium ion influx induced by capsaicin stimulation)”.
For `CCC/C=C/c1ccc(C(=O)NCc2cc(OC)c(OC)c(OC)c2)cc1` [Compound 213] the value was “+ (compound exhibited 0-25% inhibition of calcium ion influx induced by capsaicin stimulation)”; for `CC(C)(C)/C=C/c1ccc(C(=O)Nc2ccccc2C#N)cc1` [Compound 30], “++ (compound exhibited 25-50% inhibition of calcium ion influx induced by capsaicin stimulation)”.
Regarding `CCC/C=C/c1ccc(C(=O)Nc2ccccc2C#N)cc1` [Compound 225], the “inhibition of calcium ion influx induced” value was “+ (compound exhibited 0-25% inhibition of calcium ion influx induced by capsaicin stimulation)”.
The result for `CC(C)(C)/C=C/c1ccc(C(=O)Nc2ccc3c(c2)OCO3)cc1` [Compound 47] reads “++++ (compound exhibited 75% or greater inhibition of calcium ion influx induced by capsaicin stimulation)”; that for `CC(C)/C=C/c1ccc(C(=O)Nc2ccc(Cl)nc2)cc1` [Compound 166], “+ (compound exhibited 0-25% inhibition of calcium ion influx induced by capsaicin stimulation)”.
As to `CC(C)(C)/C=C/c1ccc(C(=O)NCCc2ccc(S(C)(=O)=O)cc2)cc1` [Compound 20], the “inhibition of calcium ion influx induced” value is recorded as “+ (compound exhibited 0-25% inhibition of calcium ion influx induced by capsaicin stimulation)”.
For `CC(C)/C=C/c1ccc(C(=O)Nc2ccccc2CCO)cc1` [Compound 151] the value was “+++ (compound exhibited 50-75% inhibition of calcium ion influx induced by capsaicin stimulation)”.
